Source: US20080214658A1, “Composition Comprising Isoorientin for Suppressing Histamine” (UNIGEN, INC., priority 2005, published 2008)

Tested on: guinea pig lung mast cells
Assay: Histamine release from passively sensitized (anti-OVA antibody) lung mast cells activated by OVA
Format: cell-based
Conditions: for Histamine (%) (amount of histamine released as percentage of the total histamine content) / inhibition % of histamine release: 4 × 10^5 mast cells, added 5 min before 1.0 μg/ml OVA challenge; for inhibition % of histamine release: vs OVA alone
Description: In each enzyme treatment, the lung tissues were filtered with nylon mesh and metal mesh (100 μm), and centrifuged (called as monodispersed mast cells). Pellets were suspended in 16 ml of buffer (TG buffer) containing Ca^2+, Mg^2+-free, and 0.1% gelatin, loaded to rough Percoll ([…] density), and centrifuged at 1,400 rpm for 25 minutes to give pellets. The cells were suspended again in 8 ml of TG buffer, loaded to discontinuous Percoll ([…] density), and centrifuged again at 1400 rpm for 25 minutes to afford various kinds of cell layers. Among them, mast cells were mainly present in 3rd or 4th layer, and so cells obtained from these layers were washed with TGCM buffer twice. […] Mast cells (4×10^5 cells) were treated with guinea pig IgG1 antibody (anti-OVA 1 ml/10^6 cells), reacted at 37° C. for 45 minutes, and then washed with TGCM buffer to remove anti-OVA antibody which was not bound to mast cells membrane. The cells were suspended in 1 ml of TGCM buffer, and treated with drug (testing substance) at each concentration for 5 minutes. The suspension was […] with 1.0 μg/ml OVA (ovalbumin), reacted for 10 minutes, cooled at ice, and centrifuged. After the centrifuge, histamine in supernatant was measured. […] The amount of histamine contained in each sample was calculated as percentage against the amount of histamine contained in total cells used, as follows. [formula]

For `O=c1cc(-c2ccc(O)c(O)c2)oc2cc(O)c([C@@H]3O[C@H](CO)[C@@H](O)[C@H](O)[C@H]3O)c(O)c12` [Isoorientin, isoorientin], the IC50 (Cavia porcellus, Mast cell, guinea pig lung mast cells, anti-OVA sensitized, OVA challenge, read-out: IC50 value, inhibition of histamine release in mast cells) was 30 µg/mL, the “Histamine (%) (amount of histamine released as percentage of the total histamine content)” value (sample 1.25 μg) was 27.9 ± 2.62% and the “inhibition % of histamine release” value (sample 1.25 μg) was 14%. For the same molecule, the “Histamine (%) (amount of histamine released as percentage of the total histamine content)” value (sample 2.5 μg) was 25.6 ± 1.49%, the “inhibition % of histamine release” value (sample 2.5 μg) was 21.3% and the “Histamine (%) (amount of histamine released as percentage of the total histamine content)” value (sample 5 μg) was 21.9 ± 2.01%. For the same molecule, the “inhibition % of histamine release” value (sample 5 μg) was 32.6%, the “Histamine (%) (amount of histamine released as percentage of the total histamine content)” value (sample 10 μg) was 17.2 ± 1.07% and the “inhibition % of histamine release” value (sample 10 μg) was 47.2%.
